Experimental data as given in US12428408B2, “Fused heterocyclic mescaline derivatives” (Enveric Biosciences Canada Inc., priority 2022, dated 2025).
pKi: −log10 of the molar value.

How the values were obtained:
5-HT1A receptor = molecular target: T1, 5-HT1A receptor (Homo sapiens, UniProt P08908); assay: 5-HT1A receptor radioligand competition assay (SPA); type: binding; conditions: for pKi: competition with 0.5 nM 8-hydroxy-DPAT [3H], test compound 3 nM to 1 mM, read-out: 5-HT1A, Ki
T1 construct: purchased Perkin Elmer 6110501400UA
T1 sequence (P08908 1-422): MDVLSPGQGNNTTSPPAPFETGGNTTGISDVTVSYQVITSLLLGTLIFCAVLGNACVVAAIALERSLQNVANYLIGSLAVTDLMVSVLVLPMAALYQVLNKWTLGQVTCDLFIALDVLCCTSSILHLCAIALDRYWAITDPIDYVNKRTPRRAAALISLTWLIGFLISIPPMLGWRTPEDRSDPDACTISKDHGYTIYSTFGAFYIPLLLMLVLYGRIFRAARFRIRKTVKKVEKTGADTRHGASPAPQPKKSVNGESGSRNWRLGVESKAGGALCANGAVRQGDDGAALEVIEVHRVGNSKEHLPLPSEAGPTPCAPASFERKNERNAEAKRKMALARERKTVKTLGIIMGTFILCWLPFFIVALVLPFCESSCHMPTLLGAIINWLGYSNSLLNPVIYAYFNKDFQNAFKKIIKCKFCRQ

[1] = molecular target: T2, human serotonin transporter (SERT) (Homo sapiens, UniProt P31645); assay: biochemical; type: binding
T2 construct: purchased PerkinElmer RBHSTM400UA
T2 sequence (P31645 whole entry): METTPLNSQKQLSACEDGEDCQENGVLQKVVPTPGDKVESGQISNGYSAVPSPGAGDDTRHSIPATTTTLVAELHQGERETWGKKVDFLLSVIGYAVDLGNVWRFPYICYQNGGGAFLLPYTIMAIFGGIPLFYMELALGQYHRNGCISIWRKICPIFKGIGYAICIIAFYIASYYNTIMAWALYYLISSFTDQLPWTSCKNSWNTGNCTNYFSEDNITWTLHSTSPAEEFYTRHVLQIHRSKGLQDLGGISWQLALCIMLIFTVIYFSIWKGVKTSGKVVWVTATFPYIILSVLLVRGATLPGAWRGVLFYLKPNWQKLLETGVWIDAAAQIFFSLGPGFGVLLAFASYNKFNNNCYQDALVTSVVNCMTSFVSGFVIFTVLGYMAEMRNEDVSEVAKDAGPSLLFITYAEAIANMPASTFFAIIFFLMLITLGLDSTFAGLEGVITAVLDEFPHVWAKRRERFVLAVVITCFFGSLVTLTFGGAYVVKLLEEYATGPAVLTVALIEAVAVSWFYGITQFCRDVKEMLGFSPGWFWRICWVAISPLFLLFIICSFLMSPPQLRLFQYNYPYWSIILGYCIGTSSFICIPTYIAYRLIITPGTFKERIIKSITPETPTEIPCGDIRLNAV

5-HT1B (h) = molecular target: T3, 5-HT1B (h) (Homo sapiens, UniProt P28222); assay: Competition assay to measure binding affinity at 5-HT1B receptor; conditions: test ligand 10 μM; [3H]GR125743 1 nM
T3 construct: host or cells: Chem-1 (RBL) cells
T3 sequence (P28222 whole entry): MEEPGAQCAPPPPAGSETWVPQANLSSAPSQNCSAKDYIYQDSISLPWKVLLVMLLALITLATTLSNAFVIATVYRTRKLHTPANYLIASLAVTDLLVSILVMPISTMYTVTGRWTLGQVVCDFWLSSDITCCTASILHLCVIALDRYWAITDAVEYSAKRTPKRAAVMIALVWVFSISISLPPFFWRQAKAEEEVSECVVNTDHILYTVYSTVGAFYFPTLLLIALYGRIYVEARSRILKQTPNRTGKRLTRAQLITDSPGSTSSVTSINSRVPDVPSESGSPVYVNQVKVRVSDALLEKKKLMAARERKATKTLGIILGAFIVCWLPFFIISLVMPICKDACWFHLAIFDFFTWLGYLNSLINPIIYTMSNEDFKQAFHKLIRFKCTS

5-HT1D (r) = molecular target: T4, 5-HT1D (r) (Rattus norvegicus, UniProt P28565); assay: Competition assay to measure binding affinity at 5-HT1D receptor; conditions: test ligand 10 μM; [3H]serotonin 1 nM
T4 construct: host or cells: CHO cells
T4 sequence (P28565 whole entry): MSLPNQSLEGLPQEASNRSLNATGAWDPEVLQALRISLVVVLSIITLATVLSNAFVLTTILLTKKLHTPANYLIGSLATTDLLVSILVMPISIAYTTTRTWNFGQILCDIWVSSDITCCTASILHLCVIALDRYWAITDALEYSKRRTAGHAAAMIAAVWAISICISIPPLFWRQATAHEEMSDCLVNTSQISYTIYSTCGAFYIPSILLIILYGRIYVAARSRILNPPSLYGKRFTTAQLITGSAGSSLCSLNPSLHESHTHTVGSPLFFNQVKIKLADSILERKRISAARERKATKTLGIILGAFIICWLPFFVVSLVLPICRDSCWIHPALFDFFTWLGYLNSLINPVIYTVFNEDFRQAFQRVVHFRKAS

5-HT2B (h) = molecular target: T5, 5-HT2B (h) (Homo sapiens, UniProt P41595); assay: Competition assay to measure binding affinity at 5-HT2B receptor; conditions: test ligand 10 μM; [3H]mesulergine 2 nM
T5 construct: host or cells: CHO cells
T5 sequence (P41595 whole entry): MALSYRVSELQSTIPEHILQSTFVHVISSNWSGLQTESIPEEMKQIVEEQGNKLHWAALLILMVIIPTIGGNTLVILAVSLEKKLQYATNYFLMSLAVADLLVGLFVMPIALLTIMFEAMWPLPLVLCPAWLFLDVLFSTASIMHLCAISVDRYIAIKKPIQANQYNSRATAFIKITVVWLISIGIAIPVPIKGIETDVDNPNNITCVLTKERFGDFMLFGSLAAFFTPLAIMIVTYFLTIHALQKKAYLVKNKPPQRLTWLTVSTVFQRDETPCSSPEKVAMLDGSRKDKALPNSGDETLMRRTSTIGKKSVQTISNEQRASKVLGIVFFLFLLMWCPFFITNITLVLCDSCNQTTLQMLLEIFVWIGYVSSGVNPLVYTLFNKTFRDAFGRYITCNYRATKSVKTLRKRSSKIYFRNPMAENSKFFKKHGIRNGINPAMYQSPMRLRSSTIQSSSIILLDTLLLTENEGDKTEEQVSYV

5-HT2C (h) = molecular target: T6, 5-HT2C (h) (Homo sapiens, UniProt P28335); assay: Competition assay to measure binding affinity at 5-HT2C receptor; conditions: test ligand 10 μM; [125I](±)DOI 0.1 nM
T6 construct: host or cells: HEK-293 cells
T6 sequence (P28335 33-458): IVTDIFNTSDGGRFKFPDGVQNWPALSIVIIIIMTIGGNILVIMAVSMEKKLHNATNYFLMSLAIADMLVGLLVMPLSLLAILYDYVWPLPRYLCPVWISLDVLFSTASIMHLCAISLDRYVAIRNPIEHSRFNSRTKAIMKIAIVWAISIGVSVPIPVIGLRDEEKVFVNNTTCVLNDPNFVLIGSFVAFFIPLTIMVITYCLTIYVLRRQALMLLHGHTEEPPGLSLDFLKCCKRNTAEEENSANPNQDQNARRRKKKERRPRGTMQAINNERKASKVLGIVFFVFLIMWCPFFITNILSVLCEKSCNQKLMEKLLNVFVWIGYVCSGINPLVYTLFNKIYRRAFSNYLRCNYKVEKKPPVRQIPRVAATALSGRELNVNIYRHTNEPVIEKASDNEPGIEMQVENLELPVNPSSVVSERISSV

5-HT7 (h) = molecular target: T7, 5-HT7 (h) (Homo sapiens, UniProt P34969); assay: Competition assay to measure binding affinity at 5-HT7 receptor; conditions: test ligand 10 μM; [3H]LSD 4 nM
T7 construct: host or cells: HEK-293 cells
T7 sequence (P34969 whole entry): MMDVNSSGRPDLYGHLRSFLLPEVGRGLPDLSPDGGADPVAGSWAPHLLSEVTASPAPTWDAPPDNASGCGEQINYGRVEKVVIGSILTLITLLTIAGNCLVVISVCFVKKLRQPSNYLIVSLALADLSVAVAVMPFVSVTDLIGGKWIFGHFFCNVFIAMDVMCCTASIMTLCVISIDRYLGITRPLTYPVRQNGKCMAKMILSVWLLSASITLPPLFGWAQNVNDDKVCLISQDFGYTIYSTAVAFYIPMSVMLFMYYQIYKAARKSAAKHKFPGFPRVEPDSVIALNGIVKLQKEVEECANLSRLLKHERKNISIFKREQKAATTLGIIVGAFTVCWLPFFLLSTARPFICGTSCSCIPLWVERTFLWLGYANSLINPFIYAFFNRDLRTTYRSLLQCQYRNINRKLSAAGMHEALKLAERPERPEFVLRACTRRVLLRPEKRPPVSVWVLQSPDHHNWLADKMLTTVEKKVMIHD

alpha2A (h) = molecular target: T8, alpha2A (h) (Homo sapiens, UniProt P08913); assay: Competition assay to measure binding affinity at alpha2A receptor; conditions: test ligand 10 μM, [3H]RX 821002 1 nM; for inhibition at 10 µM: read-out: α-2A, percent of control-specific binding
T8 construct: host or cells: CHO cells
T8 sequence (P08913 1-465): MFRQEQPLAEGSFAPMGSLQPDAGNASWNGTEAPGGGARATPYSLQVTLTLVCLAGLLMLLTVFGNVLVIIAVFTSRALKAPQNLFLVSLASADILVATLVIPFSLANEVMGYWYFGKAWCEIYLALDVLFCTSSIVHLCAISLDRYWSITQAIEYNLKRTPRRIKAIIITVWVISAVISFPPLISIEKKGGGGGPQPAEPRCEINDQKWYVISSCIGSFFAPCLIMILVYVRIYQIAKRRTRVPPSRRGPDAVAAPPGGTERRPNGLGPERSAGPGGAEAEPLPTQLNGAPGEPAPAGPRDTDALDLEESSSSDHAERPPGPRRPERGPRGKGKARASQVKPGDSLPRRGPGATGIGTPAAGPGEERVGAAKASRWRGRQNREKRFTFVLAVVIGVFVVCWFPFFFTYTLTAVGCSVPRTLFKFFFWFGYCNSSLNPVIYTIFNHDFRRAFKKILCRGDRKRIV

D2 (h) = molecular target: T9, D2 (h) (Homo sapiens, UniProt P14416); assay: Competition assay to measure binding affinity at D2L receptor; conditions: test ligand 10 μM; [3H]methylspiperone 0.3 nM
T9 construct: host or cells: HEK-293 cells
T9 sequence (P14416 whole entry): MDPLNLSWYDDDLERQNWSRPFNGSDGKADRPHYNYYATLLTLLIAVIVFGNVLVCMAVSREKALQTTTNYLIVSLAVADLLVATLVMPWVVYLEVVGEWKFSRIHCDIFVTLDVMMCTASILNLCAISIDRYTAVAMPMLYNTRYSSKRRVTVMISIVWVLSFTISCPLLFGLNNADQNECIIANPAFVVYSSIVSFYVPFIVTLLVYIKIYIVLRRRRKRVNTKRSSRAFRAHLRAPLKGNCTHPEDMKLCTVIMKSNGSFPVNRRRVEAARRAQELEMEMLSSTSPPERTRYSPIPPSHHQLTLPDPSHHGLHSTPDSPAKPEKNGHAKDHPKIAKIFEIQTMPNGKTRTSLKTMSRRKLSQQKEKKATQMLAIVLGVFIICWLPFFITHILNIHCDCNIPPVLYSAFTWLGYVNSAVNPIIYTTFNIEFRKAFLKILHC

D3 (h) = molecular target: T10, D3 (h) (Homo sapiens, UniProt P35462); assay: Competition assay to measure binding affinity at D3 receptor; conditions: test ligand 10 μM; [3H]methylspiperone […]
T10 construct: host or cells: CHO cells
T10 sequence (P35462 whole entry): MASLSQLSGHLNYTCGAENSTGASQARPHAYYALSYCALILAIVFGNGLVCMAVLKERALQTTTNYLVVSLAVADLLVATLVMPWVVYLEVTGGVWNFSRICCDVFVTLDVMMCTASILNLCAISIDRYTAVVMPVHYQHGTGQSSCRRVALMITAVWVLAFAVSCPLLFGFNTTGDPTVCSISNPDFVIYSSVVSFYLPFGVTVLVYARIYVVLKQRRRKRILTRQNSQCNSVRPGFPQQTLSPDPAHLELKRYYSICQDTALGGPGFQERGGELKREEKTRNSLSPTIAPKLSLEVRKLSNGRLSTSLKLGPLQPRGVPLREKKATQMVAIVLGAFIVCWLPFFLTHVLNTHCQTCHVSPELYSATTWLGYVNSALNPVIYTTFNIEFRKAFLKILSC

DAT (h) = molecular target: T11, DAT (h) (Homo sapiens, UniProt Q01959); assay: Competition assay to measure binding affinity at dopamine transporter (DAT); conditions: test ligand 10 μM; [3H]BTCP 4 nM
T11 construct: host or cells: CHO cells
T11 sequence (Q01959 whole entry): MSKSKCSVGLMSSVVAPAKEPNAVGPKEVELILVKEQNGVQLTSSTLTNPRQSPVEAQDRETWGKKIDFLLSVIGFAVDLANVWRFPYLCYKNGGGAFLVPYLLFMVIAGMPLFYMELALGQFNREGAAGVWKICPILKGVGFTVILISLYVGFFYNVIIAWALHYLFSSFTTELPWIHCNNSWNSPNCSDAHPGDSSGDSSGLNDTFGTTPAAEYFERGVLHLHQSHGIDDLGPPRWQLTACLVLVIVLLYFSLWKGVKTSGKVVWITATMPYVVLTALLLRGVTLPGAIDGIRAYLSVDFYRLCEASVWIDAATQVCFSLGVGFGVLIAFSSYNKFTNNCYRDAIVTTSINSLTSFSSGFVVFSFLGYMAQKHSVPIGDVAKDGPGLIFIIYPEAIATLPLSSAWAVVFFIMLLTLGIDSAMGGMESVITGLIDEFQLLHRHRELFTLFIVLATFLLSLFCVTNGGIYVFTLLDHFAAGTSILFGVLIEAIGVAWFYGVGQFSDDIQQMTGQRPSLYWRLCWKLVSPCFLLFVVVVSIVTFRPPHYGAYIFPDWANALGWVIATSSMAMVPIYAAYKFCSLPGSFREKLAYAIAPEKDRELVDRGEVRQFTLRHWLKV

MT1 (ML1A) (h) = molecular target: T12, MT1 (ML1A) (h) (Homo sapiens, UniProt P48039); assay: Competition assay to measure binding affinity at MT1 receptor; conditions: test ligand 10 μM; [125I]2-iodomelatonin 0.01 nM
T12 construct: host or cells: CHO cells
T12 sequence (P48039 whole entry): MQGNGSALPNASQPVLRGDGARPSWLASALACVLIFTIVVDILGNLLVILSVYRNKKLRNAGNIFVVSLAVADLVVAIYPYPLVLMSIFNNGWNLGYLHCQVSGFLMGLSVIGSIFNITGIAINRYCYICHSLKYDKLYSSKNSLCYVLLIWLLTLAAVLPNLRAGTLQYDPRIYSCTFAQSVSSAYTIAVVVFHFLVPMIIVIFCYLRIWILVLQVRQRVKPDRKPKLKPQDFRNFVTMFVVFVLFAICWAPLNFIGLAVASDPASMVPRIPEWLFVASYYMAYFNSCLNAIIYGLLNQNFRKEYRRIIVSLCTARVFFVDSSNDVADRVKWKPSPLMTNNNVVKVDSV

NET (h) = molecular target: T13, NET (h) (Homo sapiens, UniProt P23975); assay: Competition assay to measure binding affinity at norepinephrine transporter (NET); conditions: test ligand 10 μM; [3H]nisoxetine 1 nM
T13 construct: host or cells: CHO cells
T13 sequence (P23975 whole entry): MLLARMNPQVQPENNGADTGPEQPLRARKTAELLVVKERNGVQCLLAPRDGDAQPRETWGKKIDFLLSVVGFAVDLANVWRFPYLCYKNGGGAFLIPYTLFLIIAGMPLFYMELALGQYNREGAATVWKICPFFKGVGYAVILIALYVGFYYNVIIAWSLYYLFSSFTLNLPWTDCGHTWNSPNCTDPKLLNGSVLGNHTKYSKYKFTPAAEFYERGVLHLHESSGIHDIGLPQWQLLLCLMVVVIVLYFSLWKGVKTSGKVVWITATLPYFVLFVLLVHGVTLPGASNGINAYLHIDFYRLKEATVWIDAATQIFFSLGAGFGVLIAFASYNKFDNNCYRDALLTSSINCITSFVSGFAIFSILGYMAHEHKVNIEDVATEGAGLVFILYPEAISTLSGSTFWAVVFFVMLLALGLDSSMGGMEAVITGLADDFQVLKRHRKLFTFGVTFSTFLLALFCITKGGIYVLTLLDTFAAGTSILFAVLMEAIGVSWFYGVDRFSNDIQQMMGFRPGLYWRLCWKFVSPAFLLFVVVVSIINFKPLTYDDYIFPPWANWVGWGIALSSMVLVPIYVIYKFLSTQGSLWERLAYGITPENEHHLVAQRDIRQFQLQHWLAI

Row | SMILES | pKi (5-HT1A receptor) | pKi [1] | HT1B, percent of control-specific binding (5-HT1B (h)) [%] | HT1D, percent of control-specific binding (5-HT1D (r)) [%] | HT2B, percent of control-specific binding (5-HT2B (h)) [%] | HT2C, percent of control-specific binding (5-HT2C (h)) [%] | HT7, percent of control-specific binding (5-HT7 (h)) [%] | inhibition at 10 µM (alpha2A (h)) [%] | D2, percent of control-specific binding (D2 (h)) [%] | D3, percent of control-specific binding (D3 (h)) [%] | DAT, percent of control-specific binding (DAT (h)) [%] | MT1, percent of control-specific binding (MT1 (ML1A) (h)) [%] | NET, percent of control-specific binding (NET (h)) [%] | α-2A, percent of control-specific binding (alpha2A (h)) [%] | 5-HT1A receptor binding, binding curve in words (5-HT1A receptor; FIGS. 35C-35L) | SERT binding, binding curve in words [1]
1 | CON(C)C(C)Cc1ccc2c(c1)OCO2 (stereo not shown) [A(XVIII)] | < 3.00 | 4.01 | 6 | 0 | 9 | 3 | 6 | 0 | 0 | 5 | 5 | 6 | 1 |  |  | 
2 | COc1cc2c(cc1CC(=O)NCCO)OCO2 [A(XXII)] | < 3.00 | 4.28 | 0 | 5 | 14 | 15 | 20 | 0 | 0 | 3 | 0 | 18 | 1 |  |  | 
3 | COc1ccc2cccc(CCNC(C)=O)c2c1 [Agomelatine, reference compound] |  |  | −9 | 10 | 93 | 92 |  | 2 | −4 | 6 | 1 | 99 | 1 |  |  | 
4 | CC(NC(C)(C)C)C(=O)c1cccc(Cl)c1 (stereo not shown) [Bupropion, reference compound] |  |  | 9 | −1 | −2 | 1 |  | 2 | −5 | 3 | 92 | 83 |  |  |  | 
5 | COc1cc(CC(C)N)c(OC)cc1Br (stereo not shown) [DOB, reference compound] |  |  | 20 | 84 | 97 |  | 65 |  | 9 | 25 | 3 | −3 | 6 | 66 |  | 
6 | CNCC[C@H](Oc1cccc2ccccc12)c1cccs1 [Duloxetine, reference compound] |  |  | 52 | 63 | 95 | 92 |  |  | 24 | 66 |  | 23 |  |  |  | 
7 | CN(C)CCCN1c2ccccc2CCc2ccccc21 [Imipramine, reference compound] |  |  | 36 | 39 | 94 | 98 |  | 57 | 82 | 92 | 23 | 29 | 99 |  |  | 
8 | COc1ccc2[nH]cc(CCNC(C)=O)c2c1 [Melatonin, reference compound] |  |  | 0 | 13 | 52 | 19 |  | -7 | −20 | 2 | 4 | 98 | −2 |  |  | 
9 | O=c1n(CCCN2CCN(c3cccc(Cl)c3)CC2)nc2ccccn12 [Trazodone, reference compound] |  |  | 61 |  | 97 | 93 |  | 91 | 61 | 89 | 24 | 14 | −1 |  |  | 
10 | N#Cc1ccc2[nH]cc(CCCCN3CCN(c4ccc5oc(C(N)=O)cc5c4)CC3)c2c1 [Vilazodone, reference compound] |  |  | 67 | 97 | 96 | 92 |  | 65 | 97 | 99 | 98 | 84 | 99 |  |  | 
11 | N[C@@H](Cc1c[nH]c2ccccc12)C(=O)O [tryptophan, reference compound] | < 3.00 | < 3.00 | −22 | 3 | 0 | 25 |  | -4 | −19 | −23 | 1 | −2 | 1 |  | no binding | no binding to SERT
12 | Cc1ccc(Sc2ccccc2N2CCNCC2)c(C)c1 [vortioxetine, reference compound] |  | 8.69 | 101 | 100 | 97 | 99 |  | 62 | 51 | 88 | 90 | 26 | 99 |  |  | very tight interaction
